Test results from patent publication US20240270758A1, “PYRIDINO-OR PYRIMIDO-CYCLIC COMPOUND, PREPARATION METHOD THEREFOR AND MEDICAL USE THEREOF” (Genfleet Therapeutics (Shanghai) Inc., priority 2021, published 2024).
pIC50: −log10 of the molar value.

Experiments:
[1] = target: KRAS^wt (wild type) protein binding to RBD region fragment of RAF1 protein (Homo sapiens (Human), UniProt P01116); test: KRAS-RAF1 binding assay (HTRF), KRAS wild type; details: GST-RAF1-RBD, GTP
Protocol: (§1) GST-RAF1-RBD was purchased from BPS Bioscience; Cat. NO.: 100519; KRAS^G12D was purchased from BPS Bioscience; Cat. NO.: 100623; KRAS^wt was purchased from Reactionbiology; GTP was purchased from Sigma; Cat. NO.: G8877; Mab Anti GST-XL665 was purchased from cisbio; Cat. NO.: 61GSTXLF; Eu-W1024-anti-6×HIS was purchased from PE; Cat. NO.: AD0111; ProxiPlate-384-Plates was purchased from PerkinElmer; Cat. NO.: 6008289; DMSO was purchased from VWR AMRESCO; Cat. NO.: 0231-500ML; microplate reader was purchased from PerkinElmer; Cat. NO.: Envison;
(§2) This experiment is intended to investigate the inhibitory effect of compounds on the binding of KRAS^G12D mutant protein or KRAS^Wt (wild type) protein to fragments of the RBD region fragment of RAF1 protein. A 500×3-fold gradient concentration stock of compound was prepared using DMSO and diluted 50-fold into a 10× stock of compound using reaction buffer. To the reaction wells of an ELISA plate (ProxiPlate-384-Plates), was first added 3 µL of His-KRAS^G12D protein or KRAS^wt protein, then added 1 μL of 200 µM GTP and incubated for 30 min, then added 2 μL of 10× compound or reaction buffer with 2% DMSO (positive control) and incubated for 30 min, then added 4 μL of GST-RAF1-RBD protein or reaction buffer (negative control) and incubated for 15 min, then added […] anti-His antibody and XL665-labeled anti-GST antibody mixed well in advance and incubated for 60 min before reading HTRF signal by microplate reader. The inhibition ratio of compounds on KRAS protein (G12D mutant or wild type) and RAF1 binding was calculated IR (%)=(positive control signal-compound well signal)/(positive control signal-negative control signal)×100% and IC50 values were calculated by fitting compound concentrations and corresponding inhibition ratios using the Prism 8 four-parameter method. […] While the inhibition IC50 values of the compounds on the binding of KRAS^wt (wild type) protein to the RBD region fragment of RAF1 protein was more than 40 nM or 100 nM, or more than 500 nM, or even more than 1 μM or 2 μM.

[2] = test system: AsPC-1 cells (KRAS^G12D mutation); test: Cell proliferation inhibition assay (3D, CellTiter-Glo), AsPC-1; format: cell-based, human; details: 3D cell model, 5 days
Method in brief: (§3)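 3D spheroids of AsPC-1 (800 cells/well, RPMI-1640) or AGS (400 cells/well, F-12K), 10% FBS, seeded overnight, then exposed 5 days to 3.16-fold compound dilutions (0.1% DMSO final). CellTiter-Glo 3D luminescence gives inhibition relative to DMSO and medium blanks; IC50 from four-parameter fit.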

[3] = target: KRAS^G12D mutant protein binding to RBD region fragment of RAF1 protein (Homo sapiens (Human), UniProt P01116, G12D); test: KRAS-RAF1 binding assay (HTRF), KRAS G12D; details: His-KRAS^G12D, GST-RAF1-RBD, GTP
Sequence of KRAS^G12D mutant protein binding to RBD region fragment of RAF1 protein (P01116-2 other isoform, or with tags, fused parts or gaps G12D): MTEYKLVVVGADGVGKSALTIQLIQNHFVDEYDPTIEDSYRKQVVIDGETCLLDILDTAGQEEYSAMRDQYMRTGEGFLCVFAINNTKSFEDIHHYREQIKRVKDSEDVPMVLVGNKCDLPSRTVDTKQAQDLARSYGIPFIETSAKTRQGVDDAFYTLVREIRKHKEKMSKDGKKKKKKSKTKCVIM
Protocol: as §1, §2

[4] = test system: AGS cells (KRAS^G12D mutation); test: Cell proliferation inhibition assay (3D, CellTiter-Glo), AGS; format: cell-based, human; details: 3D cell model, 5 days
Method in brief: as §3

[5] = test system: p-ERK in AGS cells (KRAS^G12D mutation); test: Cell p-ERK detection assay; format: cell-based, human; details: 3 h incubation, HTRF
Method in brief: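 AGS cells (KRAS G12D, ~20,000/well in F12K+10% FBS) treated next day with compound at 3.16-fold dilutions, 0.1% DMSO final, for 3 h. Lysates assayed for ERK phospho-T202/Y204 by HTRF after 4 h; inhibition vs DMSO and blank, IC50 from four-parameter fit.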

[6] = Mice pharmacokinetic evaluation experiment; format: in vivo; details: male, ICR, mouse, mice plasma; for Vd / half-life: IV 1 mg/kg; for AUC / Cmax: PO 100 mg/kg
Text: Purpose of the experiment: male ICR mice were used as test animals to determine the drug concentration in plasma at different time points after intravenous and intragastric administration of test compounds by LC/MS/MS method. The pharmacokinetic behavior of the test compound in mice was studied to evaluate its pharmacokinetic characteristics.
Experimental protocol: laboratory animals: twelve healthy adult male ICR mice, weighing about 30 g, were randomly divided into two groups, 6 mice in IV group and 6 mice in PO group, N=3/time point, with semi-continuous blood collection. Animals were purchased from Vital River Laboratory Animal Technology Co., Ltd.
Drug preparation: IV group: taking 10 mL sample solution as an example, weighing 2 mg sample, followed by adding 0.5 mL DMSO, […], then adding […] HP-β-CD, finally dilute to 10 mL with water, stirring and ultrasound to reach 0.2 mg/mL clear state. PO group: weighing an appropriate amount of samples and preparing them according to the solvent ratio of the IV group, and evenly reaching the state of 10 mg/mL after stirring and ultrasound. Administration: after fasting for one night, intravenous administration was performed in the IV group, with an administration volume of 5 mL/kg and a dose of 1 mg/kg: the PO group was administered intragastrically a dose volume of 10 mL/kg and a dose of 100 mg/kg.
Experimental operation: after the test compounds were administered to the male ICR mice in the intravenous injection group and the intragastric administration group, the blood 110 ul were collected at time points of 0.25, 0.5, 1, 2, 4, 7, and 24 h, and stored in a commercial anticoagulant tube pre-filled with K2EDTA. The plasma was separated by centrifugation for 15 min and stored at −70° C. Animals were fed 4 h after administration. The plasma levels of test compounds following intravenous and intragastric administration in mice were determined by LC/MS/MS method. The linear range of the method was 1-3000 ng/ml; Plasma samples were analyzed after treatment with acetonitrile precipitated protein.

Sequence of KRAS^wt (wild type) protein binding to RBD region fragment of RAF1 protein (P01116-2 other isoform, or with tags, fused parts or gaps): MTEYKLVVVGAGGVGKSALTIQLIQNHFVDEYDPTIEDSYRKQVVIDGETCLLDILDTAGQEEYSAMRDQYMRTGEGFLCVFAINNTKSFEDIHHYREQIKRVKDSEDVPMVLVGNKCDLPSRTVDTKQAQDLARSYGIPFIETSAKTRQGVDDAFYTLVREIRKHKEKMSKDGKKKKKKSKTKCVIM

Compound | pIC50 [1] | pIC50 ([2]; Homo sapiens, ASPC1, 120 h) | pIC50 [3] | pIC50 ([4]; Homo sapiens, AGS, 120 h) | pIC50 ([5]; Homo sapiens, AGS, 3 h) | pIC50 [2] | pIC50 [4] | pIC50 [5] | Vd [6] | half-life [6] | AUC [6] | Cmax [6]
C=C1CN2CCCC2(COc2nc(N3C[C@H]4CC[C@@H](C3)N4)c3cnc(-c4cc(O)cc5cccc(CC)c45)c(F)c3n2)C1 (stereo partly drawn) [Example Z11, 4-(4-((1R,5S)-3,8-diazabicyclo[3.2.1]octan-3-yl)-8-fluoro-2-((2-methylenetetrahydro-1H-pyrrolizin-7a(5H)-yl)methoxy)pyrido[4,3-d]pyrimidin-7-yl)-5-ethylnaphthalen-2-ol] | 6.58 | 7.30 | 7.34 | 8.60 | 8.31 | – | – | – | – | – | – | –
C#Cc1cccc2cc(O)cc(-c3ncc4c(N5C[C@H]6CC[C@@H](C5)N6)nc(OCC56CCCN5CC(=C(C)C)C6)nc4c3F)c12 (stereo partly drawn) [Example Z14, 4-(4-((1R,5S)-3,8-diazabicyclo[3.2.1]octan-3-yl)-8-fluoro-2-((2-(propan-2-ylidene)tetrahydro-1H-pyrrolizin-7a(5H)-yl)methoxy)pyrido[4,3-d]pyrimidin-7-yl)-5-ethynylnaphthalen-2-ol] | 6.96 | 6.84 | 7.40 | 7.56 | 8.00 | – | – | – | – | – | – | –
C#Cc1cccc2cc(O)cc(-c3ncc4c(N5C[C@H]6C=C[C@@H](C5)N6)nc(OCC56CCCN5CC(F)(F)C6)nc4c3F)c12 (stereo partly drawn) [Example Z15, 4-(4-((1R,5S)-3,8-diazabicyclo[3.2.1]oct-6-en-3-yl)-2-((2,2-difluorotetrahydro-1H-pyrrolizin-7a(5H)-yl)methoxy)-8-fluoropyrido[4,3-d]pyrimidin-7-yl)-5-ethynylnaphthalen-2-ol] | < 5.52 | 6.02 | 7.48 | 6.71 | 7.22 | – | – | – | – | – | – | –
C#Cc1cccc2cc(O)cc(-c3ncc4c(N5C[C@H]6CC[C@@H](C5)N6)nc(OCC56CCCN5CC=C6CC)nc4c3F)c12 (stereo partly drawn) [Example Z16, 4-(4-((1R,5S)-3,8-diazabicyclo[3.2.1]octan-3-yl)-2-((7-ethyl-2,3-dihydro-1H-pyrrolizin-7a(5H)-yl)methoxy)-8-fluoropyrido[4,3-d]pyrimidin-7-yl)-5-ethynylnaphthalen-2-ol] | < 6.00 | 6.26 | 7.22 | 7.03 | 7.26 | – | – | – | – | – | – | –
C#Cc1cccc2cc(O)cc(-c3ncc4c(N5C[C@H]6CC[C@@H](C5)N6)nc(OCC56CC(=C)CN5CC(F)C6)nc4c3F)c12 (stereo partly drawn) [Example Z17, 4-(4-((1R,5S)-3,8-diazabicyclo[3.2.1]octan-3-yl)-8-fluoro-2-((2-fluoro-6-methylenetetrahydro-1H-pyrrolizine 7a(5H)-yl)methoxy)pyrido[4,3-d]pyrimidin-7-yl)-5-ethynylnaphthalen-2-ol] | 7.19 | 7.45 | 7.30 | 8.17 | 8.94 | – | – | – | – | – | – | –
C#Cc1cccc2cc(O)cc(-c3ncc4c(N5CC6CCC(C5)N6)nc(OCC56CCCN5CCC(=C)C6)nc4c3F)c12 [Example Z18, 4-(4-((1R,5S)-3,8-diazabicyclo[3.2.1]octan-3-yl)-8-fluoro-2-((7-methylenehexahydroindolin-8a(1H)-yl)methoxy)pyrido[4,3-d]pyrimidin-7-yl)-5-ethynylnaphthalen-2-ol] | < 6.00 | – | 7.23 | – | – | 7.12 | 7.34 | 8.12 | – | – | – | –
C#Cc1cccc2cc(O)cc(-c3ncc4c(N5C[C@H]6CC[C@@H](C5)N6)nc(OCC56CCN5CC(=C)C6)nc4c3F)c12 (stereo partly drawn) [Example Z19, 4-(4-((1R,5S)-3,8-diazabicyclo[3.2.1]octan-3-yl)-8-fluoro-2-((3-methylene-1-azabicyclo[3.2.0]heptan-5-yl)methoxy)pyrido[4,3-d]pyrimidin-7-yl)-5-ethynylnaphthalen-2-ol] | 7.17 | 7.17 | 7.34 | 7.50 | 8.04 | – | – | – | – | – | – | –
C#Cc1cccc2cc(O)cc(-c3c(F)cc4c(N5C[C@H]6CC[C@@H](C5)N6)nc(OCC56CCCN5CC(=C)C6)nc4c3F)c12 (stereo partly drawn) [Example Z20] | 6.96 | – | 6.98 | – | – | 8.03 | 8.11 | 8.54 | – | – | – | –
C#Cc1c(F)ccc2cc(O)cc(-c3ncc4c(N5C[C@H]6CC[C@@H](C5)N6)nc(OCC56CC(=C)CN5CC(=C)C6)nc4c3F)c12 [Example Z194, 4-(4-((1R,5S)-3,8-diazabicyclo[3.2.1]octan-3-yl)-2-((2,6-dimethylenetetrahydro-1H-pyrrolizin-7a(5H)-yl)methoxy)-8-fluoropyrido[4,3-d]pyrimidin-7-yl)-5-ethynyl-6-fluoronaphthalen-2-ol] | – | 8.34 | – | 8.85 | 9.16 | – | – | – | 16.9 L/kg | 11.2 h | 2840 ng·h/mL | 560 ng/mL
C#Cc1c(F)ccc2cc(O)cc(-c3ncc4c(N5CC6CCC(C5)N6)nc(OC[C@@]56CCCN5C[C@H](F)C6)nc4c3F)c12 [MRTX1133, reference compound] | – | – | – | – | – | – | – | – | 14.1 L/kg | 5.15 h | 745 ng·h/mL | 279 ng/mL
